Values of other authors as cited in article PMC2777304 (PLoS Pathogens, 2009).
Structures can show the parent of a compound that is named as a salt.

Conditions: mouse, in vivo

CCN(CC)CCCC(C)Nc1c2ccc(Cl)cc2nc2ccc(OC)cc12 (stereo not shown) [quinacrine, Quinacrine dihydrochloride]
Highest nontoxic tolerable dose: 40 mg/kg/day
